Read-outs that look alike come from different tables or passages of the source.
How the values were obtained:
[1] = test system: pDNA-PK induction in HCT116 tumour spheroids; experiment: Multicellular tumour spheroid + radiation, pDNA-PK (ser2056) inhibition, immunohistochemical endpoint, HCT116; format: cell-based; conditions: Homo sapiens, 20 Gy, 20% O2
Summary of the method: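 HCT116 spheroids (~0.5 mm) in MEM/10% FBS, 20% O2, 37° C., pre-incubated 1 h with compound (10 or 5 μM down to 3.5 nM), irradiated 20 Gy, then 2 h further with compound. Cryosections immunostained for pDNA-PK ser2056; EC50 is concentration halving radiation-induced pDNA-PK.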

[2] = Hepatocyte Stability Assay, mouse hepatocytes; format: in vitro ADME; conditions: for hepatocyte CLint at 1 uM: male, CD-1, cryopreserved hepatocytes, pH 7.3, mouse hepatocytes 0.7 million cells per mL, 1 uM compound; for Hepatocyte Stability Mouse % rem. 120 min: mouse hepatocytes
Protocol: (§1) Cryopreserved mouse hepatocytes were obtained from a pool of 10 or more male CD-1 mice. Cryopreserved human hepatocytes were obtained from a pool of 10 or more donors of mixed gender. Final hepatocyte density was 0.7 million viable cells per mL and test compound concentration was 1 uM with a maximum of 0.01% DMSO. Cryopreserved hepatocytes were thawed, washed, and resuspended in Krebs-Heinslet buffer (pH 7.3). The reaction was initiated by adding the test compound into cell suspension and incubated for 0, […], 1, 1.5, and 2 h, respectively, at 37° C./5% C02. The reaction was stopped by adding acetonitrile into the incubation mixture. Samples were then mixed, transferred completely to another 96-well plate, and centrifuged. Supernatants were used for HPLC-MS/MS analysis. […] Peak areas corresponding to the test compound were recorded.

[3] = Hepatocyte Stability Assay, human hepatocytes; format: in vitro ADME; conditions: for hepatocyte CLint at 1 uM: both sexes, cryopreserved hepatocytes, pH 7.3, human hepatocytes 0.7 million cells per mL, 1 uM compound; for Hepatocyte Stability Human % rem. 120 min: human hepatocytes
Protocol: as §1

DNA-PK = target: T1, DNA-PK (Homo sapiens, UniProt P78527); experiment: DNA-PK Assay for Biochemical Enzymatic Inhibition (ADP Glo Kinase assay); conditions: DNA-PK enzyme, Table 1
T1 construct: purchased Invitrogen PR9107A
Summary of the method: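 Human DNA-PK (25 ng) preincubated 15 min with compounds (ten three-fold dilutions) in HEPES pH 7.5, MgCl2, KCl, calf thymus DNA buffer, then substrate 434.4 μM and ATP 64.4 μM (final) for 60 min at room temperature. ADP-Glo luminescence; percent inhibition fitted by four-parameter regression for IC50.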

[4] = HCT-116, 2 h, spheroids, Example 8, read-out: Cell line: HCT116 Immunohistochemical endpoint pDNA-PK inhibition EC50
[5] = HCT-116, 2 hours following radiation, Example 9 Study 2, read-out: Spheroid Cell line: HCT116 Immunohistochemical endpoint pDNA-PK inhibition EC50
[6] = HCT-116, Spheroid, Cell Line: HCT115 (so in the source), 2 hours following radiation, Example 7, read-out: EC50, Immunohistochemical endpoint, pDNA-PK inhibition

Row | SMILES | EC50 [1, 4] | EC50 [1, 5] | EC50 [1, 6] | hepatocyte CLint at 1 uM [2] | Hepatocyte Stability Mouse % rem. 120 min [2] | hepatocyte CLint at 1 uM [3] | Hepatocyte Stability Human % rem. 120 min [3] | IC50 (DNA-PK)
1 | CN1CCN(C(=O)COc2cnc(N[C@H]3CC[C@@H](Oc4nc(N5CCOCC5)cc5ncccc45)CC3)nc2)CC1 [Compound 62, 1-(4-Methylpiperazin-1-yl)-2-((2-(((1s,4s)-4-((7-morpholino-1,6-naphthyridin-5-yl)oxy)cyclohexyl)amino)pyrimidin-5-yl)oxy)ethan-1-one] | – | 0.5 to 1 µM | 0.5 to 1 µM | < 8.2 µL/min/1e6 cells | H (% remaining = 75-100%) | > 8.2 µL/min/1e6 cells | F (% remaining = 25-50%) | < 0.0005 µM
2 | CN(C)CCOc1cnc(N[C@H]2CC[C@@H](Oc3nc(N4CCOCC4)cc4ncccc34)CC2)nc1 [Compound 64, 5-(2-(Dimethylamino)ethoxy)-N-((1s,4s)-4-((7-morpholino-1,6-naphthyridin-5-yl)oxy)cyclohexyl)pyrimidin-2-amine] | 0.01 to 0.5 µM | 0.01 to 0.5 µM | 0.01 to 0.5 µM | < 8.2 µL/min/1e6 cells | G (% remaining = 50-75%) | – | – | < 0.0005 µM
3 | O=C(O)c1cnc2cc(N3CCOCC3)nc(O[C@H]3CC[C@@H](n4ccnc4)CC3)c2c1 [Compound 165, 5-(((1s,4s)-4-(1H-imidazol-1-yl)cyclohexyl)oxy)-7-morpholino-1,6-naphthyridine-3-carboxylic acid] | 10 to 100 µM | 10 to 100 µM | 10 to 100 µM | < 8.2 µL/min/1e6 cells | H (% remaining = 75-100%) | – | – | < 0.0005 µM
4 | O=C(NO)c1cnc2cc(N3CCOCC3)nc(O[C@H]3CC[C@@H](n4ccnc4)CC3)c2c1 [Compound 172, 5-(((1s,4s)-4-(1H-imidazol-1-yl)cyclohexyl)oxy)-N-hydroxy-7-morpholino-1,6-naphthyridine-3-carboxamide] | 1 to 10 µM | 1 to 10 µM | 1 to 10 µM | > 8.2 µL/min/1e6 cells | F (% remaining = 25-50%) | – | – | < 0.0005 µM
5 | CS(=O)(=O)NC(=O)c1cnc2cc(N3CCOCC3)nc(O[C@H]3CC[C@@H](n4ccnc4)CC3)c2c1 [Compound 175, 5-(((1s,4s)-4-(1H-imidazol-1-yl)cyclohexyl)oxy)-N-(methylsulfonyl)-7-morpholino-1,6-naphthyridine-3-carboxamide] | 10 to 100 µM | 10 to 100 µM | 10 to 100 µM | – | – | – | – | 0.0005 to 0.001 µM

The remaining lines, values ahead:

Row | EC50 [1, 4] | EC50 [1, 5] | EC50 [1, 6] | hepatocyte CLint at 1 uM [2] | Hepatocyte Stability Mouse % rem. 120 min [2] | hepatocyte CLint at 1 uM [3] | Hepatocyte Stability Human % rem. 120 min [3] | IC50 (DNA-PK) | SMILES
6 | 0.01 to 0.5 µM | 0.01 to 0.5 µM | 0.01 to 0.5 µM | < 8.2 µL/min/1e6 cells | G (% remaining = 50-75%) | < 8.2 µL/min/1e6 cells | F (% remaining = 25-50%) | 0.0005 to 0.001 µM | CN(C)C(=O)COc1cnc(N[C@H]2CC[C@@H](Oc3nc(N4CCOCC4)cc4ncccc34)CC2)nc1 [Compound 54, N,N-Dimethyl-2-((2-(((1s,4s)-4-((7-morpholino-1,6-naphthyridin-5-yl)oxy)cyclohexyl)amino)pyrimidin-5-yl)oxy)acetamide]
7 | – | 0.01 to 0.5 µM | 0.01 to 0.5 µM | < 8.2 µL/min/1e6 cells | G (% remaining = 50-75%) | < 8.2 µL/min/1e6 cells | G (% remaining = 50-75%) | 0.0005 to 0.001 µM | O=C(COc1cnc(N[C@H]2CC[C@@H](Oc3nc(N4CCOCC4)cc4ncccc34)CC2)nc1)N1CCOCC1 [Compound 61, 1-Morpholino-2-((2-(((1s,4s)-4-((7-morpholino-1,6-naphthyridin-5-yl)oxy)cyclohexyl)amino)pyrimidin-5-yl)oxy)ethan-1-one]
8 | – | 1 to 10 µM | 1 to 10 µM | < 8.2 µL/min/1e6 cells | H (% remaining = 75-100%) | > 8.2 µL/min/1e6 cells | F (% remaining = 25-50%) | < 0.0005 µM | O=C(COc1cnc(N[C@H]2CC[C@@H](Oc3nc(N4CCOCC4)cc4ncccc34)CC2)nc1)N1CCNCC1 [Compound 63, 2-((2-(((1s,4s)-4-((7-Morpholino-1,6-naphthyridin-5-yl)oxy)cyclohexyl)amino)pyrimidin-5-yl)oxy)-1-(piperazin-1-yl)ethan-1-one]
